The inhibition is the share of the control response that was lost under treatment. A high value points to strong suppression. Usually IC50 stands for the concentration at which inhibition is half-maximal.

T1 sequence (P30518 whole entry): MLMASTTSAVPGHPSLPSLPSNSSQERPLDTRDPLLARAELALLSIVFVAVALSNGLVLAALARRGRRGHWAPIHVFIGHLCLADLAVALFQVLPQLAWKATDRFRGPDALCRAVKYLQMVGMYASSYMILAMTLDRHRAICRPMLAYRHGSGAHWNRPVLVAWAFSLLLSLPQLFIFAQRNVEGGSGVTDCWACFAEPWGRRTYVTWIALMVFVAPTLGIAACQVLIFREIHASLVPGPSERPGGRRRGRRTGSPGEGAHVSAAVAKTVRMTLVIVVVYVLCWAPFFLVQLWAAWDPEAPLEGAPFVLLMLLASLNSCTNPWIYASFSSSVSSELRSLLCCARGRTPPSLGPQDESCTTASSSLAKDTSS

One test concerns the target T1, human vasopressin V2 receptor subtype (Homo sapiens, UniProt P30518).
T1 construct: host or cells: CHO cells, pZeoSV vector
The test is described as follows: Vasopressin binding in CHO cell membranes expressing human vasopressin V2 subtype receptors ([3H]arginine vasopressin radioligand binding). The note with it: @ 100 nM. The text has this: Vasopressin Binding in Chinese Hamster Ovary Cell Membranes Expressing Human Vasopressin V2 Subtype Receptors
Chinese Hamster Ovary (CHO) cells stably transfected with the human V2 subtype receptors were obtained from M. Thibonnier, Case Western Reserve University School of Medicine, Cleveland, Ohio.
A. Passaging and Amplification of Cells
CHO cells transfected with the human vasopressin V2 subtype receptors obtained from M. Thibonnier (pZeoSV vector) are allowed to grow to confluency (approx. >90%) in T-150 flasks under sterile conditions, in a cell culture medium ofF-12 Nutrient Mixture (HAM) with L-glutamine (Gibco Cat. #11765-054) containing 15 mM HEPES (Gibco Cat. #15630-080), 1% antibiotic/antimycotic (add 5 mL 100×, Gibco Cat. #15240-062 per 500 mL F-12), 250 μg/mL Zeocin (add 1.25 mL of 100 mg/mL Invitrogen R-250-01 per 500 mL F-1 2) and 10% Fetal Bovine Serum (Qualified, heat inactivated, Gibco Cat. #16140-063). The medium is removed by aspiration and the cells washed with 10 mL of Hank's Balanced Salt solution (Gibco Cat. #14175-095). The salt solution is removed by aspiration and the cells trypsinized with 5 mL of trypsin-EDTA (0.05% trypsin, 0.53 mM EDTA-4Na, Gibco Cat. #25300-070) for 1 min. The trypsin is removed by aspiration and the cells dislodged by tapping. Cell Culture medium (e.g. 30 mL for 1:30 split) is immediately added and mixed well to inactivate trypsin. 1 mL of detached cells is added to new culture flasks containing fresh Cell Culture medium (e.g. into 25 mL per T-150 flask), and mixed gently. The cells are incubated at 37° C. in 5% CO2. The medium is changed at 3 to 4 day interval (or as appropriate). The cells grow to confluency (approx. >75%-95%) within 7-8 days. All steps are done under sterile conditions.
The cells are washed twice gently with Hank's Balanced Salt solution (e.g. use 10 mL per T-150 flask). The excess solution is removed and the cells bathed for 15-30 min. in an enzyme-free Cell Dissociation Buffer (e.g. use 8 mL Hank's Based, Gibco Cat. # 13150-016 per T-150 flask) until cells are loosened. The contents are transferred to centrifuge tubes (50 mL) kept in ice bath. All subsequent steps are done at 4° C. The tubes are centrifuged at 300×g for 15 min (1380 rpm on SORVAL, Model RT6000D, using the rotor for 50 mL tubes). The supernatant is discarded and the cells suspended in homogenizing buffer (10 mM Tris-HCl containing 0.25 M sucrose and 1 mM EDTA, pH 7.4) ensuring that the volume of the buffer is about ten times the volume of the cell pellet. The cells are pooled into a centrifuge tube (50 mL) and homogenized with Polytron at setting 6 for 10 sec. The homogenate is transferred into a Potter-Elvjehm homogenizer and homogenized with 3 strokes. The homogenate is centrifuged at 1500×g for 60 min at 4° C. (3100 rpm using SORVAL, model RT6000D, using the rotor for 50 mL tubes). The pellet is discarded. The supernatant is centrifuged at 100,000×g for 60 min. at 4° C. (Beckman L8-80M ultracentrifuge; spin at 37,500 rpm with rotor type 70 Ti for 50 mL tubes; 38,000 rpm with type 80Ti for 15 mL tubes; or 35,800 rpm with rotor type 45Ti). The supernantant is discarded and the pellet suspended in 3 to 4 mL of Tris buffer (50 mM TRIS—HCl, pH 7.4). The protein content is estimated by the Bradford or Lowry method. The volume of the membrane suspension is adjusted with the membrane buffer (50 mM Tris-HCl containing 0.1% BSA and 0.1 mM PMSF) to give 3.0 mg/mL (or as appropriate) of protein. The membranes are aliquoted and stored at −70. ° C.
C. Radioligand Binding Assay
In wells of a 96-well format microtiter plate, is added 90, 110 or 130 μL (to make up a final volume of 200 μL) of assay buffer containing 50 mM of Tris-HCl (pH 7.4), […], 1 mg % aprotinin, 1 mg % leupeptin, 2 mg % 1,10-phenanthroline, 10 mg % trypsin inhibitor, and 0.1 mM PMSF. The inhibitors are added on the day of the experiment. […]
For `O=C(c1ccc2n1Cc1ccccc1N(C(=O)c1ccc(-c3cccc4ccccc34)cc1Cl)C2)N1CCN(CCO)CC1` [Example 25, 2-{4-[10-{[2-Chloro-4-(naphthalen-1-yl)phenyl]carbonyl}-(10,11-dihydro-5H-pyrrolo[2,1-c][1,4]benzodiazepin-3-yl)carbonyl]piperazine-1-yl}-1-hydroxyethane], the inhibition at 0.1 µM came out at 21%. The same measure, in the same setting: with `COc1ccccc1-c1ccc(C(=O)N2Cc3ccc(C(=O)N4CCN(CCO)CC4)n3Cc3ccccc32)cc1C` [Example 40, [4-(2-Hydroxyethyl)-1-piperazinyl]{10-[(2′-methoxy-2-methyl[1,1′-biphenyl]-4yl)carbonyl]-10,11-dihydro-5H-pyrrolo[2,1-c][1,4]benzodiazepin-3-yl}methanone] the figure was 25%; with `COc1cc(C(=O)N2Cc3ccc(C(=O)N4CCN(CCO)CC4)n3Cc3ccccc32)ccc1-c1cccc2ccccc12` [Example 41, [4-(2-Hydroxyethyl)-1-piperazinyl]{10-[3-methoxy-4-(1-naphthyl)benzoyl]-10,11-dihydro-5H-pyrrolo[2,1-c][1,4]benzodiazepin-3-yl}methanone], 35%; with `COc1cc(C(=O)N2Cc3ccc(C(=O)N4CCN(CCO)CC4)n3Cc3ccccc32)ccc1-c1ccccc1C` [Example 42, [4-(2-Hydroxyethyl)-1-piperazinyl]{10-[(2-methoxy-2′-methyl[1,1′-biphenyl]-4yl)carbonyl]-10,11-dihydro-5H-pyrrolo[2,1-c][1,4]benzodiazepin-3-yl}methanone], 27%. Same read-out and setting: with `COc1ccccc1-c1ccc(C(=O)N2Cc3ccc(C(=O)N4CCN(CCO)CC4)n3Cc3ccccc32)cc1OC` [Example 43, {10-[(2,2′-Dimethoxy[1,1′-biphenyl]-4-yl)carbonyl]-10,11-dihydro-5H-pyrrolo[2,1-c][1,4]benzodiazepin-3-yl}[4-(2-hydroxyethyl)-1-piperazinyl]methanone] the figure was 27%. Still for that read-out and setting: with `COc1cccc(-c2ccc(C(=O)N3Cc4ccc(C(=O)N5CCN(CCO)CC5)n4Cc4ccccc43)cc2C)c1` [Example 44, [4-(2-Hydroxyethyl)-1-piperazinyl]{10-[(3′-methoxy-2-methyl[1,1′-biphenyl]-4yl)carbonyl]-10,11-dihydro-5H-pyrrolo[2,1-c][1,4]benzodiazepin-3-yl}methanone] the figure was 13%; with `Cc1ccccc1-c1ccc(C(=O)N2Cc3ccc(C(=O)N4CCN(CCO)CC4)n3Cc3ccccc32)cc1` [Example 45, [4-(2-Hydroxyethyl)-1-piperazinyl]{10-[(2′-methyl[1,1′-biphenyl]-4-yl)carbonyl]-10,11-dihydro-5H-pyrrolo[2,1-c][1,4]benzodiazepin-3-yl}methanone], 9%. Consider `Cc1ccccc1-c1ccc(C(=O)N2Cc3ccc(C(=O)N4CCN(CCO)CC4)n3Cc3ccccc32)cc1C` [Example 46, {10-[(2,2′-Dimethyl[1,1′-biphenyl]-4-yl)carbonyl]-10,11-dihydro-5H-pyrrolo[2,1-c][1,4]benzodiazepin-3-yl}[4-(2-hydroxyethyl)-1-piperazinyl]methanone], for which the inhibition at 0.1 µM came out at 14%.

The same test, now with this note: value printed in parentheses.
Consider `COCC(CN(C)C(=O)c1ccc2n1Cc1ccccc1N(C(=O)c1ccc(-c3ccccc3C(F)(F)F)c(C)c1)C2)OC` (centres unmarked) [Example 10, N-(2,3-Dimethoxypropyl)-N-methyl-10-{[2-methyl-2′-trifluoromethyl-[1,1′-biphenyl]-4-yl]carbonyl}-10,11-dihydro-5H-pyrrolo[2,1-c][1,4]benzodiazepine-3-carboxamide], for which the IC50 was 2220 nM. For `Cc1cc(C(=O)N2Cc3ccc(C(=O)N(C)CC4COC(=O)O4)n3Cc3ccccc32)ccc1-c1ccccc1C(F)(F)F` (centres unmarked) [Example 11, 10-[(2-Methyl-2′-trifluoromethyl-[1,1′-biphenyl]-4-yl)carbonyl]-10,11-dihydro-5H-pyrrolo[2,1-c][1,4]benzodiazepine-3-carboxylic acid methyl-[(2-oxo-[1,3]dioxolan-4-yl)methyl]-amide], the IC50 came to 356 nM. As for `Cc1cc(C(=O)N2Cc3ccc(C(=O)N(C)C[C@@H]4OC(=O)O[C@H]4[C@H](O)[C@H]4COC(=O)O4)n3Cc3ccccc32)ccc1-c1ccccc1C(F)(F)F` [Example 12, N-[((4S,5S)-5-{(R)-Hydroxy[(4R)-2-oxo-1,3-dioxolan-4-yl]methyl}-2-oxo-1,3-dioxolan-4-yl)methyl]-N-methyl-10-{[2-methyl-2′-(trifluoromethyl)[1,1′-biphenyl]-4-yl]carbonyl}-10,11-dihydro-5H-pyrrolo[2,1-c]benzodiazepine-3-carboxamide], the IC50 was 763 nM. As to `CC(=O)OCC(CN(C)C(=O)c1ccc2n1Cc1ccccc1N(C(=O)c1ccc(-c3ccccc3C(F)(F)F)c(C)c1)C2)OC(C)=O` (centres unmarked) [Example 13, 2-(Acetyloxy)-1-({methyl[(10-{[2-methyl-2′-trifluoromethyl-[1,1′-biphenyl]-4-yl]carbonyl}-10,11-dihydro-5H-pyrrolo[2,1-c][1,4]benzodiazepin-3-yl)carbonyl]amino}methyl)ethyl acetate], the IC50 stood at 990 nM.

With `COc1ccccc1-c1ccc(C(=O)N2Cc3ccc(C(=O)N(C)CC(O)CO)n3Cc3ccccc32)cc1C` (centres unmarked) [Example 14, 10-[(2′-Methoxy-2-methyl-[1,1′-biphenyl]-4-yl)carbonyl]-10,11-dihydro-5H-pyrrolo[2,1-c][1,4]benzodiazepine-3-carboxylic acid (2,3-dihydroxy-propyl)-methyl-amide], the IC50 was determined as 205 nM. Regarding `COc1ccccc1-c1ccc(C(=O)N2Cc3ccc(C(=O)N(C)C[C@H](O)[C@@H](O)[C@H](O)[C@H](O)CO)n3Cc3ccccc32)cc1C` [Example 17, 10-[(2′-Methoxy-2-methyl-[1,1′-biphenyl]-4-yl)carbonyl]-10,11-dihydro-5H-pyrrolo[2,1-c][1,4]benzodiazepine-3-carboxylic acid methyl-[(2S,3R,4R, 5R)-2,3,4,5,6-pentahydroxy-hexyl)-amide], the IC50 amounted to 144 nM. As to `COc1cc(-c2ccccc2C(F)(F)F)c(Cl)cc1C(=O)N1Cc2ccc(C(=O)N(C)C[C@H](O)[C@@H](O)[C@H](O)[C@H](O)CO)n2Cc2ccccc21` [Example 20, 10-{[6-Chloro-3-methoxy-2′-trifluoromethyl-[1,1′-biphenyl]-4-yl]carbonyl}-N-methyl-N-[(2S,3R,4R,5R)-2,3,4,5,6-pentahydroxyhexyl]-10,11-dihydro-5H-pyrrolo[2,1-c][1,4]benzodiazepine-3-carboxamide], the half-maximal inhibitory concentration (IC50) was 227 nM.

Turning to `Cc1ccc(-c2ccc(C(=O)N3Cc4ccc(C(=O)N(C)CC(O)CO)n4Cc4ccccc43)cc2)c2ccccc12` (centres unmarked) [Example 26, 10-{[4-(4-Methyl-naphthalen-1-yl)phenyl]carbonyl}-10,11-dihydro-5H-pyrrolo[2,1-c][1,4]benzodiazepine-3-carboxylic acid (2,3-dihydroxy-propyl)-N-methylamide], the IC50 worked out at 11.3 nM. Regarding `COc1cc(-c2ccccc2C)c(Cl)cc1C(=O)N1Cc2ccc(C(=O)N3CCN(CCO)CC3)n2Cc2ccccc21` [Example 39, {10-[(6-Chloro-3-methoxy-2′-methyl[1,1′-biphenyl]-4-yl)carbonyl]-10,11-dihydro-5H-pyrrolo[2,1-c][1,4]benzodiazepin-3-yl}[4-(2-hydroxyethyl)-1-piperazinyl]methanone], the IC50 came out at 383 nM.

The record behind these values is US6900200B2, “Tricyclic hydroxy carboxamides and derivatives thereof tocolytic oxytocin receptor antagonists” (Wyeth, priority 2001, dated 2005).
